# Assay results: US8232407B2, “Nitrogenous heterocyclic compounds with insecticidal activity, and the preparation and use thereof” (East China University of Science and Technology, priority 2008, dated 2012)
# Read-outs that look alike come from different tables or passages of the source.
# Experiments:
# Assay type in all cases: in vivo
# Aphis craccivoral = test: Insecticidal activities to aphids, immersion method; details: for Aphis craccivoral Mortality (%) 500 ppm: in vivo; for mortality at 500 ppm: Aphis, read-out: Aphis craccivoral Mortality (%) 500 ppm
# Outline: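 Immersion assay: compound diluted from 10 g/L DMF stock to 500 ppm in 0.2 mL/L Triton X-100, sprout-feeding wingless adults dipped 5 s. Kept at 23° C, three repeats; 24 h mortality calculated relative to surviving Triton-treated controls.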
# Nilaparvata lugens = test: Insecticidal activities to plant hopper, spraying method; details: for Nilaparvata lugens Mortality (%) 500 ppm: in vivo; for mortality at 500 ppm: Nilaparvata lugens, read-out: Nilaparvata lugens Mortality (%) 500 ppm
# Outline: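 Spray test: acetone solutions of 500 down to 0.79 ppm, 2 ml per tumbler holding 10 planthoppers introduced 6 h earlier, triplicate, aqueous acetone as control. Mortality at 24 h calculated from survivors relative to control.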
# [1] = test system: Pseudaletia separate Walker; test: Insecticidal activities to armyworm, leaf dipping and feeding; details: for Pseudaletia separate Walker Mortality (%) 500 ppm: in vivo; for mortality at 500 ppm: Zea mays, foliar, read-out: Pseudaletia separate Walker Mortality (%) 500 ppm
# Outline: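 Armyworms (10 per tumbler, 3 replicates) ate fresh maize leaves that had been immersed for 3 seconds in compound solutions of 1.57-500 ppm in acetone, or in aqueous acetone for controls. Kills were scored at 24 h, and mortality was calculated relative to survivors in the control group.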
# Plutella xylostella = test: Insecticidal activities to diamondback moth, feeding dipped leaves; details: for Plutella xylostella Mortality (%) 500 ppm: in vivo; for mortality at 500 ppm: Plutella xylostella, read-out: Plutella xylostella Mortality (%) 500 ppm
# Outline: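 Mortality was scored 24 h after larvae of Plutella xylostella (10 per treatment, 3 repeats) fed on cabbage leaves immersed 3 s in test solution and dried at room temperature. It was computed relative to survivors in a water-treated control.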
SMILES,Aphis craccivoral Mortality (%) 500 ppm (Aphis craccivoral),Nilaparvata lugens Mortality (%) 500 ppm (Nilaparvata lugens),Pseudaletia separate Walker Mortality (%) 500 ppm [1],Plutella xylostella Mortality (%) 500 ppm (Plutella xylostella),other results
N#CC(=Cc1cc(Br)c(Br)o1)C1=NCCN1Cc1ccc(Cl)nc1 [Compound 144],87%,100%,90%,100%,–
N#CC(=Cc1ccc(CO)o1)C1=NCCN1Cc1ccc(Cl)nc1 [Compound 145],92%,100%,100%,100%,–
N#CC(=Cc1cccs1)C1=NCCN1Cc1ccc(Cl)nc1 [Compound 146],100%,100%,100%,100%,–
N#CC(=Cc1ccsc1)C1=NCCN1Cc1ccc(Cl)nc1 [Compound 147],100%,100%,100%,100%,–
N#CC(=Cc1cc(Br)cs1)C1=NCCN1Cc1ccc(Cl)nc1 [Compound 148],97%,100%,100%,100%,–
N#CC(=Cc1cc(Cl)c(Cl)s1)C1=NCCN1Cc1ccc(Cl)nc1 [Compound 149],94%,100%,97%,100%,–
N#CC(=Cc1sc(Cl)cc1Cl)C1=NCCN1Cc1ccc(Cl)nc1 [Compound 150],–,–,–,–,"Aphis craccivoral Mortality (%) (Aphis craccivoral; 500 ppm, immersion method): 95%; Nilaparvata lugens Mortality (%) (Nilaparvata lugens; 500 ppm, spraying method, counted after 24 hours): 100%; Pseudaletia separate Walker Mortality (%) ([1]; 500 ppm, maize leaf dipping and feeding, counted after 24 hours): 100%; Plutella xylostella Mortality (%) (Plutella xylostella; 500 ppm, feeding dipped cabbage leaves, counted after 24 hours): 100%"
"CCN(Cc1ccc(Cl)nc1)C(=N\C)/C(=C\c1ccco1)[N+](=O)[O-] [Compound 151, N-((6-chloropyridin-3-yl)methyl)-N-ethyl-3-(furan-2-yl)-N′-methyl-2-nitro acrylamidine]",–,–,–,–,"mortality at 500 ppm (Aphis craccivoral; 24 h): 76%; mortality at 500 ppm (Nilaparvata lugens; 24 h): 87%; mortality at 500 ppm ([1]; 24 h): 86%; mortality at 500 ppm (Plutella xylostella; in Brassica oleracea, 24 h): 79%"
"CCN(Cc1ccc(Cl)nc1)C(=N\C)/C(=C\c1ccc[nH]1)[N+](=O)[O-] [Compound 160, N-((6-chloropyridin-3-yl)methyl)-N-ethyl-N′-methyl-2-nitro-3-(1H-pyrrol-2-yl) acrylamidine]",–,–,–,–,"mortality at 500 ppm (Aphis craccivoral; 500 ppm, immersion 5 seconds, counted after 24 hours): 56%; mortality at 500 ppm (Nilaparvata lugens; 500 ppm, spraying, counted after 24 hours): 54%; mortality at 500 ppm ([1]; 500 ppm, dipped maize leaves fed, counted after 24 hours): 64%; mortality at 500 ppm (Plutella xylostella; 500 ppm, dipped cabbage leaves fed, counted after 24 hours): 100%"
C[N+]1=C(C(=Cc2ccco2)[N+](=O)[O-])N(Cc2ccc(Cl)nc2)CC1.[Cl-] [Compound 244],100%,100%,100%,100%,–
C[N+]1=C(C(=Cc2ccoc2)[N+](=O)[O-])N(Cc2ccc(Cl)nc2)CC1.[Cl-] [Compound 245],100%,100%,100%,100%,–
C[N+]1=C(C(=Cc2ccc([N+](=O)[O-])o2)[N+](=O)[O-])N(Cc2ccc(Cl)nc2)CC1.[Cl-] [Compound 246],100%,100%,100%,100%,–
C[N+]1=C(C(=Cc2ccc(Cl)o2)[N+](=O)[O-])N(Cc2ccc(Cl)nc2)CC1.[Cl-] [Compound 247],100%,100%,100%,100%,–
C[N+]1=C(C(=Cc2ccc(Br)o2)[N+](=O)[O-])N(Cc2ccc(Cl)nc2)CC1.[Cl-] [Compound 248],100%,100%,100%,100%,–
C[N+]1=C(C(=Cc2cc(Cl)co2)[N+](=O)[O-])N(Cc2ccc(Cl)nc2)CC1.[Cl-] [Compound 249],100%,100%,100%,100%,–
C[N+]1=C(C(=Cc2cc(Br)co2)[N+](=O)[O-])N(Cc2ccc(Cl)nc2)CC1.[Cl-] [Compound 250],100%,100%,100%,100%,–
C[N+]1=C(C(=Cc2cc(Cl)c(Cl)o2)[N+](=O)[O-])N(Cc2ccc(Cl)nc2)CC1.[Cl-] [Compound 251],100%,100%,100%,100%,–
C[N+]1=C(C(=Cc2oc(Cl)cc2Cl)[N+](=O)[O-])N(Cc2ccc(Cl)nc2)CC1.[Cl-] [Compound 252],100%,100%,100%,100%,–
C[N+]1=C(C(=Cc2cc(Br)c(Br)o2)[N+](=O)[O-])N(Cc2ccc(Cl)nc2)CC1.[Cl-] [Compound 253],100%,100%,100%,100%,–
C[N+]1=C(C(=Cc2oc(Br)cc2Br)[N+](=O)[O-])N(Cc2ccc(Cl)nc2)CC1.[Cl-] [Compound 254],100%,100%,100%,100%,–
Cc1ccc(C=C(C2=[N+](C)CCN2Cc2ccc(Cl)nc2)[N+](=O)[O-])o1.[Cl-] [Compound 255],100%,100%,100%,100%,–
Cc1coc(C=C(C2=[N+](C)CCN2Cc2ccc(Cl)nc2)[N+](=O)[O-])c1.[Cl-] [Compound 256],100%,100%,100%,100%,–
CCc1ccc(C=C(C2=[N+](C)CCN2Cc2ccc(Cl)nc2)[N+](=O)[O-])o1.[Cl-] [Compound 257],100%,100%,100%,100%,–
C[N+]1=C(C(=Cc2ccc(CO)o2)[N+](=O)[O-])N(Cc2ccc(Cl)nc2)CC1.[Cl-] [Compound 258],100%,100%,100%,100%,–
C[N+]1=C(C(=Cc2cccs2)[N+](=O)[O-])N(Cc2ccc(Cl)nc2)CC1.[Cl-] [Compound 259],100%,100%,100%,100%,–
C[N+]1=C(C(=Cc2ccsc2)[N+](=O)[O-])N(Cc2ccc(Cl)nc2)CC1.[Cl-] [Compound 260],90%,92%,80%,89%,–
